Source: patent US6649637B2, “Inhibition of intracellular replication by pyridinylimidazoles” (priority 2001, dated 2003)
Read-outs that look alike come from different tables or passages of the source.

Legend:
T. gondii strain RH = assay: Protection of fibroblast monolayers from T. gondii-mediated destruction
From the text: Photomicrographs were taken 5 days after treatment was begun.

T. gondii [1] = details: cited from earlier work
[2] = system: extracellular T. gondii tachyzoites; assay: Incubation of extracellular tachyzoites with drug, wash, then [3H]uracil incorporation in fresh fibroblasts; format: cell-based, Toxoplasma gondii; details: 10 μM, extracellular tachyzoites incubated 1 hour, washed; at 48 hours
human p38 MAPK = human p38 MAPK (Homo sapiens, UniProt Q16539); details: cited from earlier work
RH strain T. gondii [3] = assay: Diamidino-2-phenylindole staining / microscopy of infected fibroblasts: tachyzoite and vacuole morphology; details: for tachyzoite morphology (bi-/multinucleated forms): diamidino-2-phenylindole staining
Method: Parasitophorous vacuoles and tachyzoite morphology were assessed by diamidino-2-phenylindole staining 24 hours later using an ultraviolet light with excitation at 410-430 nM.
Tachyzoites were released from infected fibroblasts by forced passage through a 27-gauge needle, and used within 2 hours of collection to infect new host cells. Tachyzoites were enumerated with a hemacytometer using Trypan blue dye. To evaluate nuclear morphology, infected cells were stained with diamidino-2phenylindole (Sigma) and examined by light microscopy at 400× magnification. To estimate the intensity of T. gondii infection, cytospin preparations of aliquots of cells in infected cultures were stained with Giemsa stain and examined by light microscopy using a 40× objective. At least 200 cells per condition were counted.

[4] = system: T. gondii Me49 strain tachyzoites; assay: [3H]methyluracil incorporation: intracellular tachyzoite replication in human fibroblasts, Me49 strain; format: cell-based, Toxoplasma gondii; details: for Me49 strain more susceptible to growth inhibition than RH strain: ratio of IC50 RH / Me49
[5] = system: T. gondii infected dendritic cells; format: cell-based, human
[6] = system: T. gondii RH strain tachyzoites; assay: [3H]methyluracil incorporation: intracellular tachyzoite replication in human fibroblasts, RH strain; format: cell-based, Toxoplasma gondii; details: drug added 6 hours after infection; for inhibition of intracellular RH strain tachyzoite replication: dose-dependent
Me49 tachyzoites = assay: Stage conversion (tachyzoite to bradyzoite) by flow cytometry, Me49 strain; format: cell-based, Toxoplasma gondii; details: Me49, after 5 days of treatment
From the text: (§1) Tachyzoites were stained with murine monoclonal antibodies specific for tachyzoite protein (SAG-2, provided by Jacqueline Channon, Dartmouth) or bradyzoite-specific antibodies against p21 or p36 (32) followed by fixation with paraformaldehyde. Flow cytometric data were acquired on a FACS Calibur (Becton-Dickinson, Mountain View, Calif.) and analyzed using CellQuest software (Becton-Dickinson) with 5000 or more events evaluated for each condition. Analysis gates were set using appropriate antibody isotype controls, and dead cells were excluded based on light scatter characteristics.

mutant tachyzoite SBRRH2 = assay: Replication of SB203580-resistant RH clone SBRRH2 in fibroblasts; format: cell-based, Toxoplasma gondii
RH strain tachyzoites = assay: Tachyzoite cholesterol content (densitometric units); format: cell-based, Toxoplasma gondii; details: 10 μM
Method: (§2) The mean of triplicate replications with standard error bars is shown. “Control” is no drug treatment.
(§3) Cholesterol esterification activity was assessed by pulse-labeling of cells using radiolabeled fatty acid as substrate. […] At the time of drug addition, acyl-CoA:cholesterol acyltransferase activity was stimulated with 25-hydroxycholesterol plus cholesterol and cells were pulse-labeled for 2 hours with 20 μl sodium [^14C]oleate-albumin complex. Lipids were extracted with hexane/isopropanol (3:2 ratio) and the organic solvents evaporated under a nitrogen stream. Lipids were resuspended in chloroform, spotted on TLC silica gel G plates (Fisher, Fairlawn, N.J.) and separated in hexane/ethyl ether/glacial acetic acid (80:20:1 ratio). Cholesterol ester content was determined by liquid scintillation and normalized as pmol ^14C/mg protein. For cytochemical staining of 3-hydroxysterols, fibroblasts were seeded on poly-lysine coated coverslips, infected with RH T. gondii tachyzoites and incubated with drugs as described. After 3 days, cells were fixed in paraformaldehyde, rinsed in PBS, stained with filipin (Sigma) and examined by fluorescence microscopy using an excitation filter of 350-410 nm. Cholesterol content was determined in densitometric units measured with an Alpha Imager 2000 (Alpha Innotech Corporation, San Leandro, Calif.).

RH T. gondii = assay: Combination with pyrimethamine: [3H]uracil incorporation in RH infected fibroblasts; format: cell-based, Toxoplasma gondii; details: SB203580 1 μM
Method: Fibroblasts were infected overnight and then treated with both drugs simultaneously or individually. Incorporated [^3H]methyuracil was measured 48 hours later. Data from one representative experiment is shown.
Pyrimethamine (Sigma) was dissolved in dimethylsulfoxide and added 1 hour after infection alone or in combination with other agents.

RH strain T. gondii [7] = assay: Stage conversion (tachyzoite to bradyzoite) by flow cytometry, RH strain; format: cell-based, Toxoplasma gondii
Method: Bradyzoites highly express p36 (BSR4), and p21 in cell culture, and downregulate the tachyzoite-specific proteins SAG1 and SAG2 (38, 39). […] The drugs were replaced every 5 days. After 15 days, adherent, infected fibroblasts were recovered and freed intracellular organisms were analyzed by flow cytometry (FIG. 6A).
as §1

[8] = system: T. gondii acyl-CoA:cholesterol acyltransferase; assay: Cholesterol esterification ([14C]oleate pulse labelling) in extracellular tachyzoites; format: biochemical, Toxoplasma gondii; details: 10 μM, extracellular RH tachyzoites, 7 hours
Method: as §2
One experiment representative of 4 is shown for each measure.
as §3, with “For cytochemical staining of 3-hydroxysterols, fibroblasts were seeded on poly-lysine coated coverslips, infected with RH T. gondii tachyzoites and incubated with drugs as described.” left out

T. gondii [9] = assay: T. gondii replication in dendritic cells; format: cell-based, Toxoplasma gondii
[10] = single dose 10 μM 1 hour after infection, MOI 3, three days after infection
[11] = infected MOI 3 for 2 days, then 10 μM, 5 days after treatment was begun
[12] = fibroblasts, [3H]methyluracil incorporation

Chain of human p38 MAPK (Q16539 whole entry): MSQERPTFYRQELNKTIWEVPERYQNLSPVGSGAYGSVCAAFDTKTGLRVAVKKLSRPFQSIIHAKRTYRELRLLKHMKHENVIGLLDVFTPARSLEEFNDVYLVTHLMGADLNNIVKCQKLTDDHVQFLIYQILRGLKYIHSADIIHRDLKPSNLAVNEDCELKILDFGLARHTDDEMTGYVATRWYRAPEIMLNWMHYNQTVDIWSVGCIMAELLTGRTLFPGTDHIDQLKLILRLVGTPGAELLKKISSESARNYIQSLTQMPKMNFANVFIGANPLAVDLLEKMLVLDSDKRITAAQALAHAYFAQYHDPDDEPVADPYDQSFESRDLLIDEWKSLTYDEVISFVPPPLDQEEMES

[O]=[V]([O-])([O-])[O-] [vanadate]
state of infected fibroblast culture (T. gondii strain RH; [10]): essentially destroyed

O=c1c(-c2ccc(O)cc2)coc2cc(O)cc(O)c12 [genistein]
effect on intracellular T. gondii replication (Roisin et al.) (T. gondii [1]): no significant effect

COc1cccc(-c2cc(=O)c3ccccc3o2)c1N [PD098059]
effect on intracellular T. gondii replication (Roisin et al.) (T. gondii [1]): slightly reduced

CCc1nc(-c2ccc(OC)cc2)[nH]c1-c1ccncc1 [SB202474]
reduction of [3H]uracil incorporation [2]: < 15%
p38 MAPK inhibitory activity (human p38 MAPK): without significant p38 MAPK inhibitory effects
p38 MAPK inhibitory activity (human p38 MAPK; listed as SB202494): no anti-p38 MAPK activity
tachyzoite morphology (bi-/multinucleated forms) (RH strain T. gondii [3]): did not induce binucleated forms
state of monolayer (FIG. 6 legend) (T. gondii strain RH; [11]): completely destroyed
state of infected fibroblast culture (T. gondii strain RH; [10]): essentially destroyed
effect on Me49 tachyzoite replication [4, 12]: no significant effect
reversal of T. gondii mediated immunosuppression [5]: did not reverse immunosuppression

C[S+]([O-])c1ccc(-c2nc(-c3ccc(F)cc3)c(-c3ccncc3)[nH]2)cc1 (centres unmarked) [SB203580, 4(4-fluorophenyl)-2-(4-methylsulfinylphenyl)-5(4-pyridyl)1H-imidazole]
inhibition of intracellular RH strain tachyzoite replication [6]: significantly inhibited
SAG2 expression (Me49 tachyzoites): decreased
p21 expression (Me49 tachyzoites): significantly increased
inhibition of replication of SBRRH2 in fibroblasts (mutant tachyzoite SBRRH2; 10 μM): no detectable capacity to inhibit
tachyzoite cholesterol content (RH strain tachyzoites): only minimally reduced
inhibition of RH T. gondii replication, single agent (RH T. gondii): effective dose
p36+ organisms (bradyzoite marker) (RH strain T. gondii [7]; 10 μM SB203580 or 1 μg pyrimethamine, 15 days): significantly higher number
p21+ cells (bradyzoite marker) (RH strain T. gondii [7]; SB203580): not evident
SAG2+ organisms (tachyzoite marker) (RH strain T. gondii [7]; after 15 days of culture with SB203580, 100% at culture outset): < 15%
cyst-like structures in infected fibroblasts (RH strain T. gondii [3]; after 3 to 5 days): developed cyst-like structures
tachyzoite morphology (bi-/multinucleated forms) (RH strain T. gondii [3]): induced formation of tachyzoites with two or more nuclei
infected fibroblast monolayers under constant drug (T. gondii strain RH; constant 10 μM, four weeks): not destroyed
monolayer destroyed (FIG. 6 legend) (T. gondii strain RH; [11]): approximately 50%
infected fibroblast culture destroyed (T. gondii strain RH; [10]): approximately 50%
acyl-CoA:cholesterol acyltransferase activity [8]: did not interfere
T. gondii replication in dendritic cells (T. gondii [9]): does reduce
Me49 strain more susceptible to growth inhibition than RH strain [4]: approximately 12 fold
reversal of T. gondii mediated immunosuppression [5]: significantly reversed immunosuppression

N#CC(=C(/N)Sc1ccccc1N)/C(C#N)=C(\N)Sc1ccccc1N [U0126]
inhibition of intracellular RH strain tachyzoite replication [6]: no significant effect
tachyzoite morphology (bi-/multinucleated forms) (RH strain T. gondii [3]): did not induce binucleated forms
effect on Me49 tachyzoite replication [4, 12]: no significant effect
reversal of T. gondii mediated immunosuppression [5]: did not reverse immunosuppression

Oc1ccc(-c2nc(-c3ccc(F)cc3)c(-c3ccncc3)[nH]2)cc1 [SB202190, 4-(4-fluorophenyl)-2(4-hydroxphenyl)-5-(4 pyridyl)1H-imidazole]
IC50 ([6]; [3H]methyluracil incorporation, fibroblasts, estimated by linear interpolation, read-out: IC50 for inhibition of RH strain replication): ~5 µM
inhibition of intracellular RH strain tachyzoite replication [6]: significant inhibition
cross-resistance of SB203580-resistant tachyzoites (mutant tachyzoite SBRRH2): Cross-resistance to SB202190 was observed
state of monolayer (FIG. 6 legend) (T. gondii strain RH; [11]): virtually intact
state of infected fibroblast culture (T. gondii strain RH; [10]): healthy and confluent
IC50 ([4]; [3H]methyluracil incorporation, fibroblasts, drug added 6 hours after infection, estimated by linear interpolation, read-out: IC50 for inhibition of Me49 strain replication): ~0.2 µM
Me49 strain more susceptible to growth inhibition than RH strain [4]: ~25 fold
reversal of T. gondii mediated immunosuppression [5]: significantly reversed immunosuppression
